Measured values as given in patent US8168199B2, “Dipeptidyl peptidase IV inhibitors for the treatment of schizophrenia and depression” (priority 2000, dated 2012).

Key:
[1] = system: Male WistarF/Han (WF) rats; test: Social interaction (SI) test of anxiety, i.c.v. P32/98 and NPY (Example 3); assay type: in vivo, rat; conditions: i.c.v. 5 pmol-500 nmol
Method: Animals. […]
(§1) Animals were randomly divided into two sets of four experimental groups (n=5-6/group), which completed different consecutive SI test of anxiety. […] The time spent in active social interaction (SI-time), 1 h and 12 h food-intake were measured. […]
Social interaction (SI) test. […] Behavior was monitored using a video camera placed above the field inside the testing/isolation box. The SI behavior of both rats was recorded on-line from a monitor placed outside on top of the box. The following parameters were scored by an observer (HPN) unaware of the substrain of rats: duration of time spent in sniffing, following, crawling under and over other rats, but not passive body contact (resting, sleeping). […]
Statistical analysis. Data from repeated observations (food intake) were analyzed by two-way analyses of variance for repeated measures (ANOVA) (factors: “substrain” and “food intake” as repeated measure). […]

[2] = system: Male WistarF/Han (WF) rats; test: 1 h and 12 h food-intake after i.c.v. P32/98 and NPY (Example 3); assay type: in vivo, rat
Method: Animals. Male WistarF/Han (WF) rats (Central Animal Laboratory, Hannover Medical School, Hannover, Germany, weighing 330-370 g, were housed in a sound-proof, temperature controlled (24.0±0.5° C.) room under specific pathogen free conditions with a 12/12 h dark/light cycle (lights on at 07.00 with illumination level of 80 Lux). Food (Altromin lab chow pellets) and tap water were available ad libitum. Under ketamine/xylasine (100/5 mg/kg, i.p.) anesthesia, the rats were fixed in a Kopf stereotaxic frame and implanted with cannulae (Plastic One, Inc., Roanoke, Va., USA) above the lateral ventricle. All research and animal care procedures were approved by the Lower Saxony district government (Hannover, Germany) and followed principles described in the European Community's Council Directive of 24 Nov. 1986 (86/609/EEC).
Surgery and i.c.v. application. For surgery, rats were anesthetized and prepared with i.c.v. cannulae (coordinates: A: −0.7 mm caudal, L: 1.4 mm lateral to bregma; and V3.2 mm ventral to the skull surface; tooth bar +3.0 above ear bars) using standard stereotaxic procedures as described in detail elsewhere (von Hörsten et al., 1998a, b, c). After a 7-day recovery period, successful ventricle cannulation was confirmed by an angiotensin drinking response (von Hörsten et al., 1998a). Rats showing a positive drinking response (n=59) were then habituated to experimental handling by daily sham injections for seven days.
as §1
Statistical analysis. Data from repeated observations (food intake) were analyzed by two-way analyses of variance for repeated measures (ANOVA) (factors: “substrain” and “food intake” as repeated measure). Data obtained from simple measures such as DPIV activity or SI time were analyzed by one-way (factor: “substrain”) ANOVA. […]

CC[C@H](C)[C@H](N)C(=O)N1CCSC1 [P32/98]
time spent in active social interaction (SI-time), P32/98 alone [1]: “bell-shaped” dose-dependent anxiolytic-like effects
dose at which the 1 h feeding effect reached significance ([2]; i.c.v.): 0.05 nmol
amount of food eaten within 1 h ([2]; i.c.v. P32/98 5 pmol-500 nmol, NPY 50 pmol-1.6 nmol, dark cycle): mild feeding effect
